Results: BigSolDB 2.1

Compound: Nc1nc(Cl)cc(Cl)n1
- solubility (mole fraction) (in 1,4-dioxane, 288.15 K): 0.0122
- solubility (mole fraction) (in 1,4-dioxane, 293.15 K): 0.0139
- solubility (mole fraction) (in 1,4-dioxane, 298.15 K): 0.016
- solubility (mole fraction) (in 1,4-dioxane, 303.15 K): 0.0182
- solubility (mole fraction) (in 1,4-dioxane, 308.15 K): 0.0205
- solubility (mole fraction) (in 1,4-dioxane, 313.15 K): 0.0233
- solubility (mole fraction) (in 1,4-dioxane, 318.15 K): 0.0262
- solubility (mole fraction) (in acetone, 278.15 K): 0.00538
- solubility (mole fraction) (in acetone, 283.15 K): 0.00618
- solubility (mole fraction) (in acetone, 288.15 K): 0.0073
- solubility (mole fraction) (in acetone, 293.15 K): 0.00848
- solubility (mole fraction) (in acetone, 298.15 K): 0.0097
- solubility (mole fraction) (in acetone, 303.15 K): 0.011
- solubility (mole fraction) (in acetone, 308.15 K): 0.0126
- solubility (mole fraction) (in acetone, 313.15 K): 0.0143
- solubility (mole fraction) (in acetone, 318.15 K): 0.0163
- solubility (mole fraction) (in acetonitrile, 278.15 K): 0.00128
- solubility (mole fraction) (in acetonitrile, 283.15 K): 0.00155
- solubility (mole fraction) (in acetonitrile, 288.15 K): 0.00186
- solubility (mole fraction) (in acetonitrile, 293.15 K): 0.00223
- solubility (mole fraction) (in acetonitrile, 298.15 K): 0.00265
- solubility (mole fraction) (in acetonitrile, 303.15 K): 0.00314
- solubility (mole fraction) (in acetonitrile, 308.15 K): 0.0037
- solubility (mole fraction) (in acetonitrile, 313.15 K): 0.00434
- solubility (mole fraction) (in acetonitrile, 318.15 K): 0.00505
- solubility (mole fraction) (in cyclohexane, 283.15 K): 4.26e-05
- solubility (mole fraction) (in cyclohexane, 288.15 K): 5.55e-05
- solubility (mole fraction) (in cyclohexane, 293.15 K): 7.15e-05
- solubility (mole fraction) (in cyclohexane, 298.15 K): 9.05e-05
- solubility (mole fraction) (in cyclohexane, 303.15 K): 0.000115
- solubility (mole fraction) (in cyclohexane, 308.15 K): 0.000144
- solubility (mole fraction) (in cyclohexane, 313.15 K): 0.000181
- solubility (mole fraction) (in cyclohexane, 318.15 K): 0.000224
- solubility (mole fraction) (in ethanol, 278.15 K): 0.000929
- solubility (mole fraction) (in ethanol, 283.15 K): 0.00111
- solubility (mole fraction) (in ethanol, 288.15 K): 0.00132
- solubility (mole fraction) (in ethanol, 293.15 K): 0.00158
- solubility (mole fraction) (in ethanol, 298.15 K): 0.00183
- solubility (mole fraction) (in ethanol, 303.15 K): 0.00215
- solubility (mole fraction) (in ethanol, 308.15 K): 0.00251
- solubility (mole fraction) (in ethanol, 313.15 K): 0.00293
- solubility (mole fraction) (in ethanol, 318.15 K): 0.00339
- solubility (mole fraction) (in ethyl acetate, 278.15 K): 0.00458
- solubility (mole fraction) (in ethyl acetate, 283.15 K): 0.00535
- solubility (mole fraction) (in ethyl acetate, 288.15 K): 0.00631
- solubility (mole fraction) (in ethyl acetate, 293.15 K): 0.0073
- solubility (mole fraction) (in ethyl acetate, 298.15 K): 0.00847
- solubility (mole fraction) (in ethyl acetate, 303.15 K): 0.00981
- solubility (mole fraction) (in ethyl acetate, 308.15 K): 0.0113
- solubility (mole fraction) (in ethyl acetate, 313.15 K): 0.0129
- solubility (mole fraction) (in ethyl acetate, 318.15 K): 0.0147
- solubility (mole fraction) (in isopropanol, 278.15 K): 0.000517
- solubility (mole fraction) (in isopropanol, 283.15 K): 0.000645
- solubility (mole fraction) (in isopropanol, 288.15 K): 0.000808
- solubility (mole fraction) (in isopropanol, 293.15 K): 0.000989
- solubility (mole fraction) (in isopropanol, 298.15 K): 0.00121
- solubility (mole fraction) (in isopropanol, 303.15 K): 0.00148
- solubility (mole fraction) (in isopropanol, 308.15 K): 0.00178
- solubility (mole fraction) (in isopropanol, 313.15 K): 0.00215
- solubility (mole fraction) (in isopropanol, 318.15 K): 0.00257
- solubility (mole fraction) (in methanol, 278.15 K): 0.00113
- solubility (mole fraction) (in methanol, 283.15 K): 0.00132
- solubility (mole fraction) (in methanol, 288.15 K): 0.00158
- solubility (mole fraction) (in methanol, 293.15 K): 0.00183
- solubility (mole fraction) (in methanol, 298.15 K): 0.00218
- solubility (mole fraction) (in methanol, 303.15 K): 0.00251
- solubility (mole fraction) (in methanol, 308.15 K): 0.00293
- solubility (mole fraction) (in methanol, 313.15 K): 0.00335
- solubility (mole fraction) (in methanol, 318.15 K): 0.00389
- solubility (mole fraction) (in n-propanol, 278.15 K): 0.000792
- solubility (mole fraction) (in n-propanol, 283.15 K): 0.00095
- solubility (mole fraction) (in n-propanol, 288.15 K): 0.00113
- solubility (mole fraction) (in n-propanol, 293.15 K): 0.00136
- solubility (mole fraction) (in n-propanol, 298.15 K): 0.00163
- solubility (mole fraction) (in n-propanol, 303.15 K): 0.00192
- solubility (mole fraction) (in n-propanol, 308.15 K): 0.00226
- solubility (mole fraction) (in n-propanol, 313.15 K): 0.00265
- solubility (mole fraction) (in n-propanol, 318.15 K): 0.00313
- solubility (mole fraction) (in toluene, 278.15 K): 0.000551
- solubility (mole fraction) (in toluene, 283.15 K): 0.000695
- solubility (mole fraction) (in toluene, 288.15 K): 0.000856
- solubility (mole fraction) (in toluene, 293.15 K): 0.00105
- solubility (mole fraction) (in toluene, 298.15 K): 0.00128
- solubility (mole fraction) (in toluene, 303.15 K): 0.00156
- solubility (mole fraction) (in toluene, 308.15 K): 0.00188
- solubility (mole fraction) (in toluene, 313.15 K): 0.00228
- solubility (mole fraction) (in toluene, 318.15 K): 0.00274
